From US5364764A, “Fluorescent chloramphenicol derivatives for determination of chloramphenicol acetyltransferase activity” (Molecular Probes, Inc., priority 1992, dated 1994)

Columns and labels:
[1] = biological target: T1, purified CAT (chloramphenicol acetyltransferase) (Escherichia coli, UniProt P62577); test: Procedure for comparing activity of fluorescent substrates (TLC, conversion to acetylated products); format: biochemical; details: 0.8 U purified CAT, acetyl CoA, 1M TRIS pH 7.4, 37° C., 1 hour
T1 construct: the pSV2cat reporter type
T1 sequence (P62577 whole entry, looked up): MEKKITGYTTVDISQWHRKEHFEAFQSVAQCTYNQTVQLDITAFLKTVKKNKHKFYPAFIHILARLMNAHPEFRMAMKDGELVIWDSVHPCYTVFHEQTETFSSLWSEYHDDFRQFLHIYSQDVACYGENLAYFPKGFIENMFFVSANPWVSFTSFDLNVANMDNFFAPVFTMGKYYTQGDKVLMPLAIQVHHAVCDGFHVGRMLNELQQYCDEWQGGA
Experimental: To a solution of 0.5 mg acetyl CoA in 112 μL of 1M TRIS pH 7.4 was added 7 μL of a solution of 440 μM fluorescent CAT substrate in ethanol. Then 0.8 U of purified CAT in 1 μL of 1 M TRIS (pH 7.4) was added and the solution was incubated at 37° C. for 1 hour. The reaction mixture was extracted with 0.7 mL of ethyl acetate, and the solvent was removed under vacuum. The residue was dissolved in 14 μL of ethyl acetate, spotted on the pre-absorbent area of Whatman LK6 silica-gel TLC plates and developed with 10% methanol in chloroform. A control, run as above but with no enzyme present, was spotted adjacent to each reaction mixture.
Qualitative estimates of substrate activity of each fluorescent derivative were made by examination of the plates for conversion to acetylated products.

[2] = biological target: T1, purified CAT (chloramphenicol acetyltransferase); test: Relative velocity vs chloramphenicol; format: biochemical; details: first ten minutes, substrate 33.2 μM, TRIS pH 7.4, 0.4 mg Acetyl CoA, 0.8U purified enzyme
Experimental: The velocity during the first ten minutes at a substrate concentration of 33.2 μM was determined using Compound 6 and ^14 C chloramphenicol. The reactions were run in 100 μL final volume TRIS pH 7.4 with 0.4 mg of Acetyl CoA and 0.8U of purified enzyme. The concentrations of acetylated products after ten minutes were determined by extraction from the TLC plates and measuring spectrophotometrically, in the case of Compound 6, and by counting radioactivity in the case of ^14 C chloramphenicol. The velocity during the first ten minutes was assumed to be very close to Vmax. The velocity of Compound 6 was 0.66 of the velocity of ^14 C chloramphenicol.

[3] = Solubility in aqueous and nonaqueous solvents; format: physicochemical; details: compared with the corresponding fluorescein derivative 36
[4] = tested on: chloramphenicol acetyltransferase (CAT); details: reported by Shaw et al., J. Biol. Chem. 242(4):687 (1967); read-out: Km (Michaelis-Menten constant) for chloramphenicol; cited from earlier work

Row | SMILES | Qualitative estimate of substrate activity (reaction velocity, conversion to acetylated products) [1] | Velocity relative to the velocity of 14C chloramphenicol [2] | Solubility in ethyl acetate [3] | Km [4] [µM]
1 | CC(=O)Nc1ccc([C@@H](O)[C@@H](CO)NC(=O)CCCNC(=O)CC2=CC(C)=[N+]3C2=Cc2c(C)cc(C)n2[B-]3(F)F)cc1 [Compound 6] | highest reaction velocities | 0.66 | much more soluble in ethyl acetate | –
2 | CN(C)c1ccc2c(CC(=O)NCCCC(=O)N[C@H](CO)[C@H](O)c3ccc([N+](=O)[O-])cc3)cc(=O)oc2c1 [Compound 21] | highest reaction velocities | – | – | –
3 | CC(=O)Nc1ccc([C@@H](O)[C@@H](CO)NC(=O)CCCNC(=O)Cc2cc(=O)oc3cc(N(C)C)ccc23)cc1 [Compound 23] | highest reaction velocities | – | – | –
4 | Nc1ccc([C@@H](O)[C@@H](CO)NC(=O)CCCCCNc2ccc([N+](=O)[O-])c3nonc23)cc1 [Compound 28] | highest reaction velocities | – | – | –
5 | O=C(N[C@H](CO)[C@H](O)c1ccc([N+](=O)[O-])cc1)C(Cl)Cl [chloramphenicol] | – | – | – | ~15
